Assay results taken from US20060189641A1, “Novel 6-phenlyphenanthridines” (priority 2003, published 2006).

tested on: PDE4; assay: Inhibition of the PDE4 activity (cytosol from human neutrophils, [3H]cAMP hydrolysis); type: biochemical; design: unit not given here; settings: 0.5 μM cAMP, Motapizone 1 μM to suppress PDE3
Protocol: Method for Measuring Inhibition of PDE4 Activity
PDE4 activity was determined as described by Thompson et al. (Adv Cycl Nucl Res 10:69-92, 1979) with some modifications (Bauer and Schwabe, Naunyn-Schmiedeberg's Arch Pharmacol 311:193-198, 1980). At a final assay volume of 200 μl (96well microtiter plates) the assay mixture contained 20 mM Tris (pH 7.4), 5 mM MgCl2, 0.5 μM cAMP, [^3H]cAMP (about 30,000 cpm/assay), the test compound and an aliquot of cytosol from human neutrophilis which mainly contains PDE4 activity as described by Schudt et al. (Naunyn-Schmledeberg's Arch Pharmacol 344:682-690, 1991); the PDE3-specific inhibitor Motapizone (1 μM) was included to suppress PDE3 activity originating from contaminating platelets. Serial dilutions of the compounds were prepared in DMSO and further diluted 1:100 (v/v) in the assays to obtain the desired final concentrations of the inhibitors at a DMSO concentration of 1% (v/v) which by itself only slightly affected PDE4 activity.
After preincubation for 5 min at 37° C., the reaction was started by the addition of substrate (cAMP) and the assays were incubated for further 15 min at 37° C. 50 μl of 0.2 N HCl was added to stop the reaction and the assays were left on ice for about 10 min. Following incubation with 25 μg 5′-nucleotidase (Crotalus atrox snake venom) for 10 min at 37° C., the assays were loaded on QAE Sephadex A-25 (1 ml bed volume). The columns were eluted with 2 ml of 30 mM ammonium formulate (pH 6.0) and the […] for radioactivity. Results were corrected for blank values (measured in the presence of denatured protein) which were below 5% of total radioactivity. […] The IC50 -values for the compounds according to the invention for the inhibition of the PDE4 activity were determined from the concentration-inhibition curves by nonlinear-regression.

SMILES	−log IC50, Inhibition of the PDE4 activity
COc1cc2c(cc1OC)[C@H]1CCCC[C@H]1N=C2c1ccc(C(C)=NOCc2ccc(Cl)cc2)cc1 [Compound 22, 1-[4-((4aR,10bR)-8,9-Dimethoxy-1,2,3,4,4a,10b-hexahydrophenanthridin-6-yl)-phenyl]-ethanone O-(4-chlorobenzyl)-oxime]	8.62
COc1cc2c(cc1OC)[C@H]1CCCC[C@H]1N=C2c1cccc(C(=NO)c2ccccc2)c1 [Compound 26, 1-[3-((4aR,10bR)-8,9-Dimethoxy-1,2,3,4,4a,10b-hexahydrophenanthridin-6-yl}-phenyl]-1-phenyl-methanone oxime]	9.27
COc1cc2c(cc1OC)[C@H]1CCCC[C@H]1N=C2c1ccc(C(C)=NOCC(=O)N2CCOCC2)cc1 [Compound 24, 2-{1-[4-((4aR,10bR)-8,9-Dimethoxy-1,2,3,4,4a,10b-hexahydrophenanthridin-6-yl)-phenyl]-ethylideneaminooxy}-1-morpholin-4-yl-ethanone]	8.25
COc1cc2c(cc1OC)C1CCCCC1N=C2c1cccc(C(C)=NO)c1 (centres unmarked) [Compound 25]	8.33
COc1ccc(CON=C(C)c2ccc(C3=NC4CCCCC4c4cc(OC)c(OC)cc43)cc2)cc1 [Compound 23, 1-[4-((4aR,10bR)-8,9-Dimethoxy-1,2,3,4,4a,10b-hexahydrophenanthridin-6}-phenyl]-ethanone O-(4-methoxybenzyl)-oxime]	8.75
COc1ccccc1CON=C(C)c1ccc(C2=N[C@@H]3CCCC[C@@H]3c3cc(OC)c(OC)cc32)cc1 [Compound 15, 1-[4-((4aR,10bR)-8,9-Dimethoxy-1,2,3,4,4a,10b-hexahydrophenanthridin-6-yl}-phenyl]-ethanone O-(2-methoxy-benzyl)-oxime]	8.33
COc1cc2c(cc1OC)C1CCCCC1N=C2c1ccc(C(=NO)c2ccccc2)cc1 [Compound 2, 1-[4-((4aR,10bR)-8,9-Dimethoxy-1,2,3,4a,10b-hexahydrophenanthridin-6-yl}phenyl]-1-phenyl-methanone oxime]	9.04
CCON=C(C)c1ccc(C2=N[C@@H]3CCCC[C@@H]3c3cc(OC)c(OC)cc32)cc1 [Compound 6, 1-[4-((4aR,10bR)-8,9-Dimethoxy-1,2,3,4,4a,10b-hexahydrophenanthridin-6-yl}-phenyl]ethanone O-ethyloxime]	8.08
COc1cc2c(cc1OC)[C@H]1CCCC[C@H]1N=C2c1ccc(C(C)=NOCC(C)C)cc1 [Compound 8, 1-[4-((4aR,10bR)-8,9-Dimethoxy-1,2,3,4,4a,10b-hexahydrophenanthridin-6yl)-phenyl]-ethanone O-isobutyloxime]	8.01
COc1cc2c(cc1OC)[C@H]1CCCC[C@H]1N=C2c1ccc(C(C)=NO)cc1 [Compound 1, 1-[4-((4aR,10bR)-8,9-Dimethoxy-1,2,3,4,4a,10b-hexahydrophenanthridin-6-yl}-phenyl]-ethanone oxime]	9.43
COc1cc2c(cc1OC)[C@H]1CCCC[C@H]1N=C2c1ccc(C(C)=NOCc2ccc([N+](=O)[O-])cc2)cc1 [Compound 5, 1-[4-((4aR,10bR)-8,9-Dimethoxy-1,2,3,4,4a,10b-hexahydrophenanthridin-6-yl}-phenyl]-ethanone O-(4-nitrobenzyl)-oxime]	8.41
COc1cc2c(cc1OC)[C@H]1CCCC[C@H]1N=C2c1ccc(C(C)=NOCc2ccccc2)cc1 [Compound 4, 1-[4-((4aR,10bR)-8,9-Dimethoxy-1,2,3,4,4a,10b-hexahydrophenanthridin-6-yl}-phenyl]-ethanone O-benzyloxime]	8.20
COc1cc2c(cc1OC)[C@H]1CCCC[C@H]1N=C2c1ccc(C(C)=NOCc2ccccc2Cl)cc1 [Compound 18, 1-[4-((4aR,10bR)-8,9-Dimethoxy-1,2,3,4,4a,10b-hexahydrophenanthridin-6-yl}-phenyl]-ethanone O-(2-chlorobenzyl)-oxime]	8.73
COc1cc2c(cc1OC)C1CCCCC1N=C2c1ccc(C(C)=NOc2ccccc2)cc1 [Compound 7, 1-[4-((4aR,10bR)-8,9Dimethoxy-1,2,3,4,a,10b-hexahydrophenanthridin-6-yl}-phenyl]ethanone O-phenyloxime]	8.26
COc1cc2c(cc1OC)[C@H]1CCCC[C@H]1N=C2c1ccc(C(C)=NOCCOc2ccccc2)cc1 [Compound 19, 1-[4-((4aR,10bR)-8,9-Dimethoxy-1,2,3,4,4a,10b-hexahydrophenanthridin-6-yl)-phenyl]-ethanone O-(2-phenoxyethyl)-oxime]	8.73
COc1cc2c(cc1OC)[C@H]1CCCC[C@H]1N=C2c1ccc(C(C)=NOCc2ccc(F)cc2)cc1 [Compound 16, 1-[4-((4aR,10bR)-8,9-Dimethoxy1,2,3,4,4a,10b-hexahydrophenanthridin-6-yl}-phenyl]-ethanone O-(4-flurobenzyl)-oxime]	8.36
COc1cc2c(cc1OC)C1CCCCC1N=C2c1ccc(C(C)=NOCC(=O)NCc2ccc(Cl)cc2)cc1 [Compound 12, N-(4-Chlorobenzyl)-2-{1-[4-((4aR,10bR)-8,9-dimethoxy-1,2,3,4,a,10b-hexahydrophenanthridin-6-yl)-phenyl]-ethylideneaminooxy}-acetamide]	8.48
COc1cc2c(cc1OC)C1CCCCC1N=C2c1ccc(C(C)=NOCc2cccc(Cl)c2)cc1 (centres unmarked) [Compound 13]	8.41
COc1cc2c(cc1OC)[C@H]1CCCC[C@H]1N=C2c1ccc(C(C)=NOCc2cccc(F)c2)cc1 [Compound 17]	8.47
COc1cc2c(cc1OC)[C@H]1CCCC[C@H]1N=C2c1ccc(C(C)=NOCc2cccc(C(F)(F)F)c2)cc1 [Compound 14, 1-[4-((4aR,10bR)-8,9-Dimethoxy-1,2,3,4,4a,10b-hexahydrophenanthridin-6-yl}-phenyl]-ethanone O-(3-trifluoromethylbenzyl)-oxime]	8.43
COc1ccccc1NC(=O)CON=C(C)c1ccc(C2=N[C@@H]3CCCC[C@@H]3c3cc(OC)c(OC)cc32)cc1 [Compound 11, 2-{1-[4-((4aR,10bR)-8,9-Dimethoxy-1,2,3,4,4a,10b-hexahydrophenanthridin-6-yl)-phenyl]ethylideneaminooxy}-N-(2-methoxyphenyl)-acetamide]	8.87
COc1cc2c(cc1OC)[C@H]1CCCC[C@H]1N=C2c1ccc(C(C)=NOCCOc2cccc(C(F)(F)F)c2)cc1 [Compound 20, 1-[4-((4aR,10bR)-8,9-Dimethoxy-1,2,3,4,4a,10b-hexahydrophenanthridin-6-yl}-phenyl]-ethanone O-[2-(3-trifluoromethylphenoxy)-ethyl]-oxime]	8.00

tested on: not given; assay: not given; settings: not given

SMILES	melting point
COc1cc2c(cc1OC)[C@H]1CCCC[C@H]1N=C2c1ccc(C(C)=NO)cc1 [Compound 1, 1-[4-((4aR,10bR)-8,9-Dimethoxy-1,2,3,4,4a,10b-hexahydrophenanthridin-6-yl}-phenyl]-ethanone oxime]	189 to 192 °C
